Test results published in US20210386791A1, “METHODS OF CELLULAR REPROGRAMMING” (TissueTech, Inc., priority 2018, published 2021).

Legend:
Format in all cases: cell-based
[1] = test system: human corneal myofibroblasts; experiment: Reversal of TGFβ1-induced human corneal myofibroblasts on immobilized HC-HA/PTX3; details: day 4 and day 7
Experimental: HCF were cultured in DMEM+10% FBS until 70% confluence. The cells were serum-starved for 1 day and treated with 10 ng/ml TGFβ1 for 3 days to induce myofibroblasts.
To reverse fibroblasts or myofibroblasts into keratocytes, fibroblasts or myofibroblasts were cultured on immobilized HC-HA/PTX3 in DMEM+10% FBS for 3 days using the samples from the cells on plastic and HA as the controls. Some of the cell cultures were extended to up to 7 days of culture to monitor the expression of α-SMA formation. […]
The samples of human corneal fibroblasts, myofibroblasts and corneal keratocytes were air-dried and fixed in 4% formaldehyde, pH 7.0, for 15 min at room temperature, rehydrated in PBS, incubated with 0.2% Triton X-100 for 15 min, and rinsed 3 times with PBS for 5 min each. […] The samples were then counterstained with Hoechst 33342 and analyzed in Zeiss LSM 700 confocal microscope (Thornhood, N.Y.). […]
Cell lysates were prepared in RIPA buffer and resolved on 4-15% (w/v) gradient acrylamide gels under denaturing and reducing conditions for Western blotting. […] Immunoreactive proteins were detected with Western Lighting Chemiluminescence (PerkinElmer, Waltham, Mass.).

[2] = test system: human corneal fibroblasts (HCF); experiment: Timing course analysis of SDF1/CXCR4 and BMP signaling in HCF; details: time course
[3] = test system: human corneal fibroblasts (HCF); experiment: P3 HCF on plastic with or without immobilized HA or HC-HA/PTX3, with or without TGFβ1: mRNA, ELISA, Western blot, immunostaining
Experimental: A total of 89 human corneas from individuals aged 18-76 years and maintained at 4° C. in Optisol (Chiron Vision, Irvine, Calif.) for less than 7 days after death were obtained from the Florida Lions Eye Bank (Miami, Fla.) and handled according to the declaration of Helsinki. HCF were isolated and cultured. Epithelial and endothelial cells were removed from corneas, the stroma was cut into cubes of approximately 1 mm^3, incubated in 2 mg/ml collagenase for 16 h at 37° C., and then placed in a culture medium consisting of Dulbecco's modified Eagle's medium (DMEM) supplemented with 10% fetal bovine serum containing […]. The culture medium was changed twice a week. The morphology of the cells was monitored by Nikon Eclipse TS 100 microscope (Melville, N.Y.). Cells cultured to passage 3 (P3) were used for all experiments.
Human corneal fibroblasts (P3) were seeded on plastics with or without immobilized HC-HA/PTX3 complex for 72 h in DMEM+10% FBS, then serum starved for 24 h and treated with or without TGFβ1 for 24 h before being harvested for mRNA quantitation or immunostaining. For determination of protein of TGFβ receptor or p75NTR, the cells were treated with or without TGF-β1 for 48 h before collection of protein samples because the protein expression lags behind mRNA expression. For TGF-β1 ELISA, the cells were treated with or without TGF-β1 for 24 h, and then cultured in the fresh medium for another 24 h. The supernatants were collected for TGFβ1 ELISA. For TGFβ2 and TGFβ3 ELISA, the cells were treated with or without TGFβ1 for 48 h. Certain HCF were seeded on glass in DMEM+10% FBS for 24 h, then in DMEM+ITS (insulin-transferrin-selenium) for 24 h, treated with/without PBS or hyaluronic acid (HA) or HC-HA/PTX3±TGFβ1 (10 ng/ml)±Marimastat (10 μM) or ±DAPT (10 μM) or ±both for 0, 5, 15, 30 and 45 minutes before being harvested for immunostaining of CD44-ICD, JNK1, Cyclin D1 and p75NTR and for 5 minutes before being harvested for Western blotting of cytoplasmic and nuclear CD44-ICD, active MT1-MMP, and active γ-secretase after compartmental separation of the cellular components.
Total RNAs were extracted using RNeasy Mini Kit and were reverse transcribed using High Capacity Reverse Transcription Kit (Applied Biosystems). cDNA obtained was amplified by real-time RT-PCR using specific primer-probe mixtures and DNA polymerase in 7000 Real-time PCR System (Thermo-Fisher Scientific, Carlsbad, Calif.). Real-time RT-PCR profile consisted of 10 minutes of initial activation at 95° C., followed by 40 cycles of 15 seconds denaturation at 95° C., and 1 min annealing and 1 min extension at 60° C. The genuine identity of each PCR product was confirmed by the size determination using 2% agarose gels followed by ethidium bromide staining together with PCR marker according to EC3 Imaging System (BioImaging System, Upland, Calif.).
The Quantikine Human ELISA Kits of TGFβs were used for determination of TGFβs following the manufacturer's instructions (R and D Systems, Minneapolis, Minn.).
HCF, induced human corneal endothelial cells (HCEC), and HCEC monolayer cultures were air-dried and fixed in 4% formaldehyde, pH 7.0, for 15 min at room temperature, rehydrated in PBS, incubated with 0.2% Triton X-100 for 15 min, and rinsed three times with PBS for 5 min each. After incubation with 2% BSA to block non-specific staining for 30 min, they were incubated with the desired first antibody (all at 1:50 dilution) for 16 h at 4° C. After three washes with PBS, they were incubated with corresponding Alexa-Fluor-conjugated secondary IgG (all 1:100 dilutions) for 60 min. The samples were then counterstained with Hoechst 33342 and analyzed with Zeiss LSM 700 confocal microscope (Thornhood, N.Y.). Corresponding mouse and rabbit sera were used as negative controls for primary monoclonal and polyclonal antibodies, respectively. […]

With hyaluronic acid [HA] the “staining of α-SMA” value [1] was “retained their characteristic staining of α-SMA”, the “time of promoted CXCR4 mRNA expression” value [2] was “not HA” and the “time to aggregation in HCF” value [2] was “not HA”. The “expression of NC markers (p75NTR, HNK1, Sox9, KLF4, Snail1, MSX1)” value ([3]; absence of TGFβ1) was “only upregulated expression of HNK1”, the “keratocan mRNA and protein” value ([3]; absence of TGFβ1) was “upregulated mRNA but not protein of keratocan” and the “TGFβ1 mRNA and protein level” value ([3]; after exogenous TGFβ1 (10 ng/ml)) was “upregulated”. For the same substance, the “nuclear translocation of pSMAD2/3 and cytoplasmic expression of α-SMA” value ([3]; exogenous TGFβ1) was “caused nuclear translocation of pSMAD2/3 and positive cytoplasmic expression of α-SMA”, the “cell shape / aggregation of P3 HCF” value ([3]; immobilized substrate, DMEM+10% FBS, 24 h) was “spindle in shape” and the keratocan upregulation ([3]; presence of TGF-β1) was “upregulation disappeared”. For the same substance, the “NC marker mRNA, p75NTR protein and p75NTR nuclear translocation” value ([3]; with TGFβ1) was “further upregulated without p75NTR nuclear translocation”.
